Data as given in PubChem BioAssay (NCI).
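Where inhibition never reached the appropriate level, the endpoint shown equals the highest concentration tested. Otherwise, values were interpolated linearly from a five-concentration, 48-hour dose response in 96-well plates. At the TGI there is no net growth.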

What was measured:
Assay in all cases: NCI anticancer screen, dose series, 48 h
T-47D breast = test system: T-47D breast
SK-MEL-2 melanoma = test system: SK-MEL-2 melanoma
HL-60(TB) leukemia = test system: HL-60(TB) leukemia
SR leukemia = test system: SR leukemia
M14 melanoma = test system: M14 melanoma
DU-145 prostate = test system: DU-145 prostate
MDA-MB-231 breast = test system: MDA-MB-231 breast
MALME-3M melanoma = test system: MALME-3M melanoma
EKVX NSCLC = test system: EKVX NSCLC
MDA-N = test system: MDA-N
UO-31 renal = test system: UO-31 renal
KM12 colon = test system: KM12 colon
OVCAR-4 ovarian = test system: OVCAR-4 ovarian
NCI-H522 lung = test system: NCI-H522 lung
HS 578T breast = test system: HS 578T breast
SF-268 CNS = test system: SF-268 CNS
U251 CNS = test system: U251 CNS
A498 renal = test system: A498 renal
SK-OV-3 ovarian = test system: SK-OV-3 ovarian

SMILES: CN1C(=O)N(c2ccccc2)C2(CCN(CC3COc4ccccc4O3)CC2)C1=O (configuration not stated)
- TGI (T-47D breast): > 100 µM
- TGI (SK-MEL-2 melanoma): > 100 µM
- TGI (HL-60(TB) leukemia): > 100 µM
- TGI (SR leukemia): > 100 µM
- TGI (M14 melanoma): > 100 µM
- TGI (DU-145 prostate): > 100 µM
- TGI (MDA-MB-231 breast): > 100 µM
- TGI (MALME-3M melanoma): > 100 µM
- TGI (EKVX NSCLC): > 100 µM
- TGI (MDA-N): > 100 µM
- TGI (UO-31 renal): > 100 µM
- TGI (KM12 colon): > 100 µM
- TGI (OVCAR-4 ovarian): > 100 µM
- TGI (NCI-H522 lung): > 100 µM
- TGI (HS 578T breast): > 100 µM
- TGI (SF-268 CNS): > 100 µM
- TGI (U251 CNS): > 100 µM
- TGI (A498 renal): > 100 µM

SMILES: CC[C@]1(Cc2ccc(OC)c(OC)c2)CN(S(=O)(=O)c2ccc(C)cc2)C[C@@H]1OC(C)=O
- TGI (T-47D breast): > 100 µM
- TGI (SK-MEL-2 melanoma): > 100 µM
- TGI (HL-60(TB) leukemia): > 100 µM
- TGI (SR leukemia): > 100 µM
- TGI (M14 melanoma): > 100 µM
- TGI (DU-145 prostate): > 100 µM
- TGI (MDA-MB-231 breast): > 100 µM
- TGI (MALME-3M melanoma): > 100 µM
- TGI (EKVX NSCLC): > 100 µM
- TGI (MDA-N): > 100 µM
- TGI (UO-31 renal): > 100 µM
- TGI (SK-OV-3 ovarian): > 100 µM
- TGI (KM12 colon): > 100 µM
- TGI (OVCAR-4 ovarian): > 100 µM
- TGI (HS 578T breast): > 100 µM
- TGI (SF-268 CNS): > 100 µM
- TGI (U251 CNS): > 100 µM
- TGI (A498 renal): > 100 µM

SMILES: Cc1nc(-c2ccc([N+](=O)[O-])cc2)cn2c1nc1ccccc12
- TGI (T-47D breast): > 100 µM
- TGI (SK-MEL-2 melanoma): 69.2 µM
- TGI (HL-60(TB) leukemia): > 100 µM
- TGI (SR leukemia): > 100 µM
- TGI (M14 melanoma): > 100 µM
- TGI (DU-145 prostate): > 100 µM
- TGI (MDA-MB-231 breast): > 100 µM
- TGI (MALME-3M melanoma): > 100 µM
- TGI (EKVX NSCLC): > 100 µM
- TGI (MDA-N): > 100 µM
- TGI (UO-31 renal): > 100 µM
- TGI (SK-OV-3 ovarian): > 100 µM
- TGI (KM12 colon): > 100 µM
- TGI (OVCAR-4 ovarian): > 100 µM
- TGI (HS 578T breast): > 100 µM
- TGI (SF-268 CNS): > 100 µM
- TGI (U251 CNS): > 100 µM
- TGI (A498 renal): > 100 µM

SMILES: CC1(O)CC(C(F)(F)F)(C(F)(F)F)OC1=O (configuration not stated)
- TGI (T-47D breast): > 10 µM
- TGI (SR leukemia): > 10 µM
- TGI (M14 melanoma): > 10 µM
- TGI (DU-145 prostate): > 10 µM
- TGI (MDA-MB-231 breast): > 10 µM
- TGI (MALME-3M melanoma): > 10 µM
- TGI (EKVX NSCLC): > 10 µM
- TGI (MDA-N): > 10 µM
- TGI (UO-31 renal): > 10 µM
- TGI (SK-OV-3 ovarian): > 10 µM
- TGI (KM12 colon): > 10 µM
- TGI (OVCAR-4 ovarian): > 10 µM
- TGI (NCI-H522 lung): > 10 µM
- TGI (HS 578T breast): > 10 µM
- TGI (SF-268 CNS): > 10 µM
- TGI (U251 CNS): > 10 µM
- TGI (A498 renal): > 10 µM

SMILES: C=C(C)C12CC(COC(=O)c3ccccc3)C34OC5(OC1C3C1OC1(CO)C(O)C1(O)C(OC(=O)c3ccccc3)C(C)C(C(C)CCCCCCC5O)C14)O2 (configuration not stated)
- TGI (T-47D breast): > 100 µM
- TGI (SK-MEL-2 melanoma): > 100 µM
- TGI (SR leukemia): > 31.6 µM
- TGI (M14 melanoma): > 100 µM
- TGI (DU-145 prostate): > 100 µM
- TGI (MDA-MB-231 breast): > 100 µM
- TGI (MALME-3M melanoma): > 100 µM
- TGI (EKVX NSCLC): > 100 µM
- TGI (MDA-N): > 100 µM
- TGI (UO-31 renal): > 100 µM
- TGI (SK-OV-3 ovarian): > 100 µM
- TGI (KM12 colon): > 100 µM
- TGI (OVCAR-4 ovarian): > 100 µM
- TGI (NCI-H522 lung): > 100 µM
- TGI (HS 578T breast): > 100 µM
- TGI (SF-268 CNS): > 100 µM
- TGI (U251 CNS): > 74.6 µM
- TGI (A498 renal): > 100 µM

SMILES: Cc1ccc([C@@H]2[C@@H](C(=O)c3ccccn3)[C@H](c3ccc(C)cc3)C[C@](O)(c3ccccn3)[C@H]2C(=O)c2ccccn2)cc1
- TGI (T-47D breast): > 100 µM
- TGI (SK-MEL-2 melanoma): > 100 µM
- TGI (HL-60(TB) leukemia): 6.92 µM
- TGI (SR leukemia): > 100 µM
- TGI (M14 melanoma): 3.01 µM
- TGI (DU-145 prostate): > 100 µM
- TGI (MDA-MB-231 breast): > 100 µM
- TGI (MALME-3M melanoma): > 100 µM
- TGI (MDA-N): > 28.5 µM
- TGI (UO-31 renal): > 100 µM
- TGI (SK-OV-3 ovarian): > 39.2 µM
- TGI (KM12 colon): > 100 µM
- TGI (OVCAR-4 ovarian): > 100 µM
- TGI (NCI-H522 lung): > 100 µM
- TGI (HS 578T breast): > 100 µM
- TGI (SF-268 CNS): > 100 µM
- TGI (U251 CNS): > 100 µM
- TGI (A498 renal): > 41.6 µM

SMILES: COc1cccc2c(N)c3cccc(C(=O)NCCN(C)C)c3nc12
- TGI (T-47D breast): 5.38 µM
- TGI (SK-MEL-2 melanoma): 1.05 µM
- TGI (SR leukemia): 1.12 µM
- TGI (M14 melanoma): 1.71 µM
- TGI (DU-145 prostate): 2.64 µM
- TGI (MDA-MB-231 breast): 0.853 µM
- TGI (MALME-3M melanoma): 0.501 µM
- TGI (EKVX NSCLC): 1.09 µM
- TGI (MDA-N): 0.982 µM
- TGI (UO-31 renal): 3.04 µM
- TGI (SK-OV-3 ovarian): 1.97 µM
- TGI (KM12 colon): 3.59 µM
- TGI (OVCAR-4 ovarian): 0.656 µM
- TGI (NCI-H522 lung): 0.149 µM
- TGI (HS 578T breast): 0.571 µM
- TGI (SF-268 CNS): 0.51 µM
- TGI (U251 CNS): 1.57 µM
- TGI (A498 renal): 1.15 µM

SMILES: CC(C)c1ccc2[nH]c(O)c(-c3[nH]c4ccccc4c3N=O)c2c1
- TGI (T-47D breast): 25.4 µM
- TGI (SK-MEL-2 melanoma): 15.1 µM
- TGI (SR leukemia): 7.32 µM
- TGI (M14 melanoma): 23.6 µM
- TGI (DU-145 prostate): 20.8 µM
- TGI (MDA-MB-231 breast): 29.8 µM
- TGI (MALME-3M melanoma): 14.4 µM
- TGI (EKVX NSCLC): 16.6 µM
- TGI (MDA-N): 19.2 µM
- TGI (UO-31 renal): 12 µM
- TGI (SK-OV-3 ovarian): 19.6 µM
- TGI (KM12 colon): 15.6 µM
- TGI (OVCAR-4 ovarian): 17.6 µM
- TGI (NCI-H522 lung): 14.6 µM
- TGI (HS 578T breast): 17.7 µM
- TGI (SF-268 CNS): 20.4 µM
- TGI (U251 CNS): 19.9 µM
- TGI (A498 renal): 9.29 µM

SMILES: Cc1nc2c(sc(=S)n2-c2ccccc2)c2nc3ncccc3n12
- TGI (T-47D breast): > 100 µM
- TGI (SK-MEL-2 melanoma): > 100 µM
- TGI (HL-60(TB) leukemia): > 100 µM
- TGI (SR leukemia): > 100 µM
- TGI (M14 melanoma): > 100 µM
- TGI (DU-145 prostate): > 100 µM
- TGI (MDA-MB-231 breast): > 100 µM
- TGI (MALME-3M melanoma): > 100 µM
- TGI (EKVX NSCLC): > 100 µM
- TGI (MDA-N): > 100 µM
- TGI (UO-31 renal): > 100 µM
- TGI (SK-OV-3 ovarian): > 100 µM
- TGI (KM12 colon): > 100 µM
- TGI (NCI-H522 lung): > 100 µM
- TGI (HS 578T breast): > 100 µM
- TGI (SF-268 CNS): > 100 µM
- TGI (U251 CNS): > 100 µM
- TGI (A498 renal): > 100 µM

SMILES: CCCCN1C(=O)CC2[C@@H]3CCc4cc(OC(C)=O)ccc4C3CC[C@]2(C)C1=O (some centres not stated)
- TGI (T-47D breast): > 10 µM
- TGI (SK-MEL-2 melanoma): > 10 µM
- TGI (HL-60(TB) leukemia): > 10 µM
- TGI (SR leukemia): > 10 µM
- TGI (M14 melanoma): > 10 µM
- TGI (DU-145 prostate): > 10 µM
- TGI (MDA-MB-231 breast): > 10 µM
- TGI (MALME-3M melanoma): > 10 µM
- TGI (EKVX NSCLC): > 10 µM
- TGI (MDA-N): > 10 µM
- TGI (UO-31 renal): > 10 µM
- TGI (SK-OV-3 ovarian): > 10 µM
- TGI (KM12 colon): > 10 µM
- TGI (OVCAR-4 ovarian): > 10 µM
- TGI (HS 578T breast): > 10 µM
- TGI (SF-268 CNS): > 10 µM
- TGI (U251 CNS): > 10 µM
- TGI (A498 renal): > 10 µM

SMILES: COc1cccc(-c2cc(=O)c3ccccc3o2)c1N
- TGI (T-47D breast): > 57.3 µM
- TGI (SK-MEL-2 melanoma): > 100 µM
- TGI (HL-60(TB) leukemia): > 100 µM
- TGI (SR leukemia): > 100 µM
- TGI (M14 melanoma): > 100 µM
- TGI (DU-145 prostate): > 100 µM
- TGI (MDA-MB-231 breast): > 100 µM
- TGI (MALME-3M melanoma): > 56 µM
- TGI (EKVX NSCLC): > 100 µM
- TGI (MDA-N): > 100 µM
- TGI (UO-31 renal): > 100 µM
- TGI (SK-OV-3 ovarian): > 100 µM
- TGI (KM12 colon): > 100 µM
- TGI (OVCAR-4 ovarian): > 100 µM
- TGI (NCI-H522 lung): > 100 µM
- TGI (HS 578T breast): > 100 µM
- TGI (SF-268 CNS): > 100 µM
- TGI (U251 CNS): > 100 µM
